Test results as given in patent US7332602B2, “Pyridyl substituted heterocycles useful for treating or preventing HCV infection” (Rigel Pharmaceuticals, Inc., priority 2002, dated 2008).
Like-named read-outs stand apart in the source and are kept apart here.

Tests used:
[1] = cytotoxicity assay (Cell Titer Glo); format: cell-based; settings: human; 48 hr with compound, ATP-dependent Cell Titer Glo; read-out: IC50 (cytotoxicity, number of viable cells)
Protocol: Compounds 1, 3, 7, 9, 11, 13, 17, 19, 21, 27, 29, 31, 33, 35, 37, 39, 47, 49, 51, 57 and 69 were tested in a cytotoxicity assay with liver cells including an HCV replicon (5-2 Luc cells, 9-13 cells or Huh-7 cells). In the assay, cells were seeded onto 96-well plates (approx. 7500 cells/well in a volume of 90 μl) and grown for 24 hr at 37° C. On day 2, various concentrations of test compound (in a volume of 10 μl) were added to the wells and the cells were grown for an additional 48 hr at 37° C. On day 4, an ATP-dependent R-Luciferase assay (Cell Titer Glo assay) was performed to determine the number of viable cells.

[2] = system: HCV proteins (HCV replication); assay: quantitative Western blot analysis with antibodies specific for certain HCV proteins; format: cell-based, Hepatitis C virus; settings: Hepatitis C virus, read-out: Western (IC50, 50% reduction in the amount of the specified HCV protein)
Protocol: Certain exemplary compounds of the invention were also tested for their ability to inhibit HCV replication using a quantitative Western blot analysis with antibodies specific for certain HCV proteins. In this assay, the amount of test compound that yielded a 50% reduction in the amount of the specified HCV protein as compared to a control sample (IC50) was determined.

[3] = system: HCV replicon (5-2 Luc replicon-comprising cells); assay: HCV replicon assay (luciferase reporter); format: cell-based, Hepatitis C virus; settings: Hepatitis C virus, read-out: Replicon (IC50, 50% reduction in luciferase emission)
Protocol: The inhibitory activity of certain exemplary compounds of the invention was confirmed using an HCV replicon assay. The HCV replicon can include such features as the HCV IRES, the HCV 3′ untranslated region, selected HCV genes encoding HCV polypeptides, selectable markers, and a reporter gene such as luciferase, GEP, etc. In the assay, actively dividing 5-2 Luc replicon-comprising cells were seeded at a density of between about 5,000 and 7,500 cells/well onto 96 well plates (about 90 μl of cells per well) and incubated at 37° C. and 5% CO2 for 24 hours. Then, the test compound (in a volume of about 10 μl) was added at various concentrations to each well and the cells were incubated for an additional 24 hours before luciferase assay. The cells were harvested, and HCV replication or translation was monitored via a reporter assay, e.g., a luciferase reporter assay. The media was aspirated from each cell and Bright-Glo ([…].) luciferase assay reagents were added to each well according to the manufacturer's instructions. In this assay, the amount of test compound that yielded a 50% reduction in luciferase emission (IC50) was determined.

[4] = second symbol of the Replicon/Western cell
[5] = first symbol of the Replicon/Western cell, 5-2 Luc replicon cells, 24 hours with compound

For `O=C(Nc1ccnc(-c2cc(-c3c(Cl)cccc3Cl)no2)c1)C(Cl)Cl` [Compound 9, 2,2-Dichloro-N-[2-[3-(2,6-dichlorophenyl)-5-isoxazolyl]-(4-pyridyl)] Acetamide], the IC50 at 48 h [1] was ≥ 10 µM, the IC50 [2] was < 10 µM and the IC50 ([3]; 24 h) was < 10 µM.

For `O=C(Nc1cncc(-c2cc(-c3c(F)cccc3Cl)no2)c1)C(Cl)Cl` [Compound 13, 2,2-Dichloro-N-[5-[3-(2-chloro-6-fluorophenyl)-5-isoxazolyl]-(3-pyridyl)] Acetamide], the IC50 at 48 h [1] was 3 µM, the IC50 [2, 4] was < 10 µM and the IC50 [3, 5] was < 10 µM.

In the case of `COc1cccc(F)c1-c1cc(-c2cncc(NC(=O)C(Cl)Cl)c2)on1` [Compound 17, 272-Dichloro-N-[5-[3-(2-fluoro-6-methoxyphenyl)-5-isoxazolyl]-(3-pyridyl)] Acetamide], the IC50 at 48 h [1] is reported as ≥ 10 µM, the IC50 [2, 4] is reported as < 10 µM and the IC50 [3, 5] is reported as < 10 µM.

For `Cc1cccc(C)c1-c1cc(-c2cncc(NC(=O)C(Cl)Cl)c2)on1` [Compound 21, 2,2-Dichloro-N-[5-[3-(2,6-dimethylphenyl)-5-isoxazolyl]-(3-pyridyl)] Acetamide], the IC50 at 48 h [1] was ≥ 10 µM, the IC50 [2, 4] was > 10 µM and the IC50 [3, 5] was < 10 µM.

For `O=C(Nc1cncc(-c2cc(-c3c(F)cccc3F)no2)c1)C(Cl)Cl` [Compound 27, 2,2-Dichloro-N-[5-[3-(2,6-difluorophenyl)-5-isoxazolyl]-(3-pyridyl)] Acetamide], the IC50 at 48 h [1] was ≥ 10 µM, the IC50 [2, 4] was < 10 µM and the IC50 [3, 5] was < 10 µM.

In the case of `COc1cccc(C(F)(F)F)c1-c1cc(-c2cc(NC(=O)C(Cl)Cl)ccn2)on1` [Compound 49, 2,2-Dichloro-N-[2-[3-(2-methoxy-6-trifluoromethylphenyl)-5-isoxazolyl]-(4-pyridyl)] Acetamide], the IC50 at 48 h [1] is reported as ≥ 10 µM, the IC50 [2, 4] is reported as < 10 µM and the IC50 [3, 5] is reported as < 10 µM.

In the case of `COc1cccc(C(F)(F)F)c1-c1cc(-c2cncc(NC(=O)C(Cl)Cl)c2)on1` [Compound 57, 2,2-Dichloro-N-[5-[3-(2-methoxy-6-trifluoromethylphenyl)-5-isoxazolyl]-(3-pyridyl)] Acetamide], the IC50 at 48 h [1] is reported as > 5 µM, the IC50 [2, 4] is reported as < 10 µM and the IC50 [3, 5] is reported as < 10 µM.
